The record followed here is publication PMC3639963, “A New Class of Small Molecule Inhibitor of BMP Signaling” (PLoS ONE, 2013).

In one test the target is T1, LOK (Homo sapiens, UniProt O94804).
T1 construct: purchased Nanosyn (enzymatic panel); SGC in-house recombinant human kinases (DSF panel); Invitrogen (ALK1-6)
Put plainly: DSF thermal shift. In kind it is binding. To be noted: 10 µM inhibitor; read-out: Tm shift. Put shortly:
(§1)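 Recombinant human kinase domains at 1–2 µM were melted in a real-time PCR instrument in the presence of 10 µM inhibitor, and thermal stability was monitored.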

In the next test the target is T2, NEK11 (Homo sapiens, UniProt Q8NG66).
T2 construct: purchased Nanosyn (enzymatic panel); SGC in-house recombinant human kinases (DSF panel); Invitrogen (ALK1-6)
T2 sequence (Q8NG66 1-645): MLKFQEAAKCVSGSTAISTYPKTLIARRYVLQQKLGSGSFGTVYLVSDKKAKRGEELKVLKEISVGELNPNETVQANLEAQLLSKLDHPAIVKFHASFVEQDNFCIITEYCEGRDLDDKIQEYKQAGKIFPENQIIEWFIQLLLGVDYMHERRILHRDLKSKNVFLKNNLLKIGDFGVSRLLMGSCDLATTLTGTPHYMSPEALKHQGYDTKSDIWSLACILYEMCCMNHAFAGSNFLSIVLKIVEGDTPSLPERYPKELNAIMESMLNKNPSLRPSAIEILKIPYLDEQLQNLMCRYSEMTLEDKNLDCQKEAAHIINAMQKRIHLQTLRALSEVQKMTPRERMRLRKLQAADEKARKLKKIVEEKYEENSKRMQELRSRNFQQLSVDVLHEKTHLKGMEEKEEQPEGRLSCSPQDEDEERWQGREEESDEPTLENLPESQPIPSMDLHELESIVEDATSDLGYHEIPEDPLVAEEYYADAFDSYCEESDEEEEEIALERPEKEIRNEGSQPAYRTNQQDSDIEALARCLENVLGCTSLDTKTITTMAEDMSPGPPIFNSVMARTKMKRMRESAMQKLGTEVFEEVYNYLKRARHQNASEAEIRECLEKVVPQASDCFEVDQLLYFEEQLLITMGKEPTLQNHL
Put plainly: DSF thermal shift. Format: binding. To be noted: 10 µM inhibitor; read-out: Tm shift. Put shortly:
as §1

The next test deals with T3, MST4 (Homo sapiens, UniProt Q9P289).
T3 construct: purchased Nanosyn (enzymatic panel); SGC in-house recombinant human kinases (DSF panel); Invitrogen (ALK1-6)
T3 sequence (Q9P289 whole entry): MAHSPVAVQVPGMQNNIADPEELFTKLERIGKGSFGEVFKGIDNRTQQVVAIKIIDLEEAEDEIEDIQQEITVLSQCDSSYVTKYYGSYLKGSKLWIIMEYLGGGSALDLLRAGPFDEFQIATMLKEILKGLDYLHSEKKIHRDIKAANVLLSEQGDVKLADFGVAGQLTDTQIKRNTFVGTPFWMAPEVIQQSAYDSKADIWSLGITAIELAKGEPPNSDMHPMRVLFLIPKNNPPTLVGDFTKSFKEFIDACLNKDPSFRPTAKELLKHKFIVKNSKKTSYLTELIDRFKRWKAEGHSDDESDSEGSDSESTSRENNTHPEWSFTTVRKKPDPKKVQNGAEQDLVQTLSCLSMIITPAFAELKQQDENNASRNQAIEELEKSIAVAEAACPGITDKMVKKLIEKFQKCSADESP
Description: DSF thermal shift. In kind it is binding. To be noted: 10 µM inhibitor; read-out: Tm shift. An outline of the steps: as §1

The next test addresses T4, NEK1 (Homo sapiens, UniProt Q96PY6).
T4 construct: purchased Nanosyn (enzymatic panel); SGC in-house recombinant human kinases (DSF panel); Invitrogen (ALK1-6)
T4 sequence (Q96PY6 1-1258): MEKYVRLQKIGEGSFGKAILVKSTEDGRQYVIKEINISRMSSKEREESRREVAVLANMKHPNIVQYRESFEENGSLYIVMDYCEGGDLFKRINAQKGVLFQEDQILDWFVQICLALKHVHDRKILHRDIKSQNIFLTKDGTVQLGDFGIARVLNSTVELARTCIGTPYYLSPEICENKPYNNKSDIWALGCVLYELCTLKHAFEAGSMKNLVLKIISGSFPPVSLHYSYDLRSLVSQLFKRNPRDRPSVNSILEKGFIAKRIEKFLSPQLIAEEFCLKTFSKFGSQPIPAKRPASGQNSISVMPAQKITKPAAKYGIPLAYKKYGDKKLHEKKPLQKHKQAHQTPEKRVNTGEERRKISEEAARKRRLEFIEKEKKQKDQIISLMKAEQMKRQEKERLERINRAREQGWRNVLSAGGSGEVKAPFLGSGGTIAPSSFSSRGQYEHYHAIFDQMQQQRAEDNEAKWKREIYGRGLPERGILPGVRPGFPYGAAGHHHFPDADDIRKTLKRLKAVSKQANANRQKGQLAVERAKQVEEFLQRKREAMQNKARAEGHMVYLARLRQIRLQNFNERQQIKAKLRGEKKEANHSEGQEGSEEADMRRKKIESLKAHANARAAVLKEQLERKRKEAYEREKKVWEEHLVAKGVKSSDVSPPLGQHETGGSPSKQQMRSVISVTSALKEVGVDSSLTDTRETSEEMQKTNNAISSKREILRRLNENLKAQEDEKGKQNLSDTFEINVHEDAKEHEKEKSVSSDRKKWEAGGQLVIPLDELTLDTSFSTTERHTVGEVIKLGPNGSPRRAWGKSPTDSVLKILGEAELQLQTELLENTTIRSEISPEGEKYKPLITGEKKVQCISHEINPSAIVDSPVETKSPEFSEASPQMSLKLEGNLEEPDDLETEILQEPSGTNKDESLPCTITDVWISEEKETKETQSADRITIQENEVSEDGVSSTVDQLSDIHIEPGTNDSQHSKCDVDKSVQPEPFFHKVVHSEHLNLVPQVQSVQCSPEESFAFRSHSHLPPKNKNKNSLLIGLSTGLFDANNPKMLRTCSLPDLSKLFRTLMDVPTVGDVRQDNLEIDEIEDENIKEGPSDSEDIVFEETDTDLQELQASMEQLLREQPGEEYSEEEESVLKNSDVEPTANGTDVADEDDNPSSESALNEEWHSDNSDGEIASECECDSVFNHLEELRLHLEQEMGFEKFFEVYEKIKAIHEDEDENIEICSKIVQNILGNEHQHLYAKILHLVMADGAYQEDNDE
Put plainly: DSF thermal shift. Format: binding. To be noted: 10 µM inhibitor; read-out: Tm shift. An outline of the steps: as §1

A further test addresses T5, MRCKβ (Homo sapiens, UniProt Q9Y5S2).
T5 construct: purchased Nanosyn (enzymatic panel); SGC in-house recombinant human kinases (DSF panel); Invitrogen (ALK1-6)
Put plainly: DSF thermal shift. In kind it is binding. To be noted: 10 µM inhibitor; read-out: Tm shift. An outline of the steps:
as §1

Another test concerns the target T6, RSK4 (Homo sapiens, UniProt Q9UK32).
T6 construct: purchased Nanosyn (enzymatic panel); SGC in-house recombinant human kinases (DSF panel); Invitrogen (ALK1-6)
Description: Nanosyn kinase profiling. In kind it is biochemical. To be noted: read-out: Percentage inhibition; for inhibition at 0.1 µM: 0.1 µM inhibitor; for inhibition at 1 µM: 1 µM inhibitor. As for the experimental part:
(§2) Percentage inhibition was determined for each kinase at both 0.1 µM and 1 µM inhibitor concentration (supplemental Table S2). […]. […]. When visualized on a kinase phylogenetic tree, these were primarily clustered within the receptor tyrosine kinases (TKs) as well as the calmodulin-dependent kinases (CAMKs) (Figure 2C).
(§3) Inhibitor selectivity profiling against 200 human kinases at 0.1 and 1 µM inhibitor concentration was performed by Nanosyn (www.nanosyn.com).

Another test addresses T7, HCK (Homo sapiens, UniProt P08631).
T7 construct: purchased Nanosyn (enzymatic panel); SGC in-house recombinant human kinases (DSF panel); Invitrogen (ALK1-6)
Description: Nanosyn kinase profiling. Format: biochemical. To be noted: read-out: Percentage inhibition; for inhibition at 0.1 µM: 0.1 µM inhibitor; for inhibition at 1 µM: 1 µM inhibitor. How it is done:
as §2, §3

A further test deals with T8, PI4-K-β (Homo sapiens, UniProt Q9UBF8).
T8 construct: purchased Nanosyn (enzymatic panel); SGC in-house recombinant human kinases (DSF panel); Invitrogen (ALK1-6)
Put plainly: Nanosyn kinase profiling. To be noted: read-out: Percentage inhibition; for inhibition at 0.1 µM: 0.1 µM inhibitor; for inhibition at 1 µM: 1 µM inhibitor. Format: biochemical. How it is done: as §2, §3

The target of a further test is T9, PHKγ1 (Homo sapiens, UniProt Q16816).
T9 construct: purchased Nanosyn (enzymatic panel); SGC in-house recombinant human kinases (DSF panel); Invitrogen (ALK1-6)
T9 sequence (Q16816 whole entry): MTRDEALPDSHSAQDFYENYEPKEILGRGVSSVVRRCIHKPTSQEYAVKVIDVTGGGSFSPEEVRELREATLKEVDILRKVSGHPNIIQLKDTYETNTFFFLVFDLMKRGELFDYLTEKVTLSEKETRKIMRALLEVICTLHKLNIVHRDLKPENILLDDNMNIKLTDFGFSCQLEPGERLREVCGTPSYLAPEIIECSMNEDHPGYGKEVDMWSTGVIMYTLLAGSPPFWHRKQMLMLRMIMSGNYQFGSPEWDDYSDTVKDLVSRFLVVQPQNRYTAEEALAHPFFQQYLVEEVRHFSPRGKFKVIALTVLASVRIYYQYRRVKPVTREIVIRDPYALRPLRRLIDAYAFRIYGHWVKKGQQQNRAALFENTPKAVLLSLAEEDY
Description: Nanosyn kinase profiling. Format: biochemical. To be noted: read-out: Percentage inhibition; for inhibition at 0.1 µM: 0.1 µM inhibitor; for inhibition at 1 µM: 1 µM inhibitor. As for the experimental part:
as §2, §3

Test [1] relates to BMP4 response (BRE-luciferase) in C2C12 cells. Description: BRE-luciferase reporter assay. In kind it is cell-based. As for the experimental part:
C2C12 cells were co-transfected using lipofectamine 2000 with BRE-luciferase and Renilla Luciferase pRLTK (Promega) following the manufacturer’s instructions. 16 hours post transfection cells were starved in DMEM containing 1% FCS for 5 hours. Inhibitors were added to triplicate wells at the indicated concentrations for 30 minutes, followed by overnight stimulation with 10 ng/ml BMP4 (Peprotech). Luciferase activities were determined according to the Dual-Luciferase® Reporter Assay System (Promega) using Renilla for normalization of transfection efficiency.
On the technique in general: Reporter assays use an easily measured gene product as a stand-in for the process of interest.

What is called inhibition is the drop in the measured response relative to a control, in per cent. One may read the IC50 as the concentration at which inhibition is half-maximal.

T1 sequence (O94804 whole entry): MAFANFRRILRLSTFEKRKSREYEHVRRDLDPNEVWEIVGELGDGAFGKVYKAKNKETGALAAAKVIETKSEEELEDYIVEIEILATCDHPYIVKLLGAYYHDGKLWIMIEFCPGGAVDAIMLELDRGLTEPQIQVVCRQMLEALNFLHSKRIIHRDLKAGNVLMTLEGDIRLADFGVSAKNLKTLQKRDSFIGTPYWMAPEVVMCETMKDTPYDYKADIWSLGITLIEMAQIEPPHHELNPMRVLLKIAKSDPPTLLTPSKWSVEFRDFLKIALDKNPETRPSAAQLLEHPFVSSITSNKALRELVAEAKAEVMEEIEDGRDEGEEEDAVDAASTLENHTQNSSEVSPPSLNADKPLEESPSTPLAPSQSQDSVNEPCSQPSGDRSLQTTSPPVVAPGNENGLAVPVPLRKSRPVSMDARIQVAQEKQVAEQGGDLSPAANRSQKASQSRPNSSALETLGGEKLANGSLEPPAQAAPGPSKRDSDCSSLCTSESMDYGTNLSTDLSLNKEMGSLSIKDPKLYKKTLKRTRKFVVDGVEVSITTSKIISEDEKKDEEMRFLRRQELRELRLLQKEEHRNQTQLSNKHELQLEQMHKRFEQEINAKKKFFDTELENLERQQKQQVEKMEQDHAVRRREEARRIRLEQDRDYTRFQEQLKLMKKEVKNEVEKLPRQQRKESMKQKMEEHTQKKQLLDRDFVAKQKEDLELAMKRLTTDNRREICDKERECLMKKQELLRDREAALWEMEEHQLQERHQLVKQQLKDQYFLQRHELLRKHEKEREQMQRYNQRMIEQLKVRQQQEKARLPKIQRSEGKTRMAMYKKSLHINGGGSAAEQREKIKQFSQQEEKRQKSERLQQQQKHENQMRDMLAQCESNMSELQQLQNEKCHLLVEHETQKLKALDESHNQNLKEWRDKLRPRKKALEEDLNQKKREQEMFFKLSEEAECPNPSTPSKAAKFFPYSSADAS
T5 sequence (Q9Y5S2 whole entry): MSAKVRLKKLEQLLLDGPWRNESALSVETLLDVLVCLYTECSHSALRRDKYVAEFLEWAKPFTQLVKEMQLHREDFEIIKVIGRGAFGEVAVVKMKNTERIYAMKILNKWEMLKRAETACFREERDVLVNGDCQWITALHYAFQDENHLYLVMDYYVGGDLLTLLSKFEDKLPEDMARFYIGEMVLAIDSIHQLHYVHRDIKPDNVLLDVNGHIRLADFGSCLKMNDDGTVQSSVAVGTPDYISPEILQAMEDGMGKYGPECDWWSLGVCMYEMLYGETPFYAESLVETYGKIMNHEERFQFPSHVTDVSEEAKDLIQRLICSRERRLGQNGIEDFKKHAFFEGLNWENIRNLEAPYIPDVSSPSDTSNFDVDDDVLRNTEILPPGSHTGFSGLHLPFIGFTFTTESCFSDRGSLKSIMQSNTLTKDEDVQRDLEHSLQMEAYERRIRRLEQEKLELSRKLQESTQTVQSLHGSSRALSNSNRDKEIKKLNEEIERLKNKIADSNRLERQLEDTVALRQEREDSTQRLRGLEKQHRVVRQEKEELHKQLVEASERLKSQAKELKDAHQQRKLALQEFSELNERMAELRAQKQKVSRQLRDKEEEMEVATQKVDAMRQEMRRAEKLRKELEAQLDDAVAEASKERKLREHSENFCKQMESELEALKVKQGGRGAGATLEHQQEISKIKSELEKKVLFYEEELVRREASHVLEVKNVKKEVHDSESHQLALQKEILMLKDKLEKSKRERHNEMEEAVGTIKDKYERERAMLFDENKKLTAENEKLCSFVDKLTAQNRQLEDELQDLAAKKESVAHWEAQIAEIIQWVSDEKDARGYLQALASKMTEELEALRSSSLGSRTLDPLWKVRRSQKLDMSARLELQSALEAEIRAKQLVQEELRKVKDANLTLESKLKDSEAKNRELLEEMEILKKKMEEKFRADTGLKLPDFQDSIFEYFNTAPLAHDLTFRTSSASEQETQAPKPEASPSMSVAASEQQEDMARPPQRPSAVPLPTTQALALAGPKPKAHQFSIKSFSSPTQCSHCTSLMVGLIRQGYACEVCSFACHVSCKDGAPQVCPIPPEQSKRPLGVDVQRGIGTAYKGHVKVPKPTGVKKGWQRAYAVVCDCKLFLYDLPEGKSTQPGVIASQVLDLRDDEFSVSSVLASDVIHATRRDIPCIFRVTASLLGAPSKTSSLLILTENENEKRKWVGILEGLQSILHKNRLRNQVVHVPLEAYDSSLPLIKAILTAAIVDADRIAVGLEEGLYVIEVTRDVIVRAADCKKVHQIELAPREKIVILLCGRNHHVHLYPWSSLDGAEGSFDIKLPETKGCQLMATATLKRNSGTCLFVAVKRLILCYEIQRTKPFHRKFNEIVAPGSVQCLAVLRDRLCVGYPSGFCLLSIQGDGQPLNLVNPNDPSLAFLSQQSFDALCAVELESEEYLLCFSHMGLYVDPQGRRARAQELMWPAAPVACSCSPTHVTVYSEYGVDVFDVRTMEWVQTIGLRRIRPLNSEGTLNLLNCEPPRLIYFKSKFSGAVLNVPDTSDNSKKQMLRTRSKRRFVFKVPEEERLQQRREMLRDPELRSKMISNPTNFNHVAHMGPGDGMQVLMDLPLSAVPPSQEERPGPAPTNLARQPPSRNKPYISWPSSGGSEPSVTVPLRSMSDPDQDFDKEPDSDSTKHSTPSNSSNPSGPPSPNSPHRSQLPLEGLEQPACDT
T6 sequence (Q9UK32 whole entry): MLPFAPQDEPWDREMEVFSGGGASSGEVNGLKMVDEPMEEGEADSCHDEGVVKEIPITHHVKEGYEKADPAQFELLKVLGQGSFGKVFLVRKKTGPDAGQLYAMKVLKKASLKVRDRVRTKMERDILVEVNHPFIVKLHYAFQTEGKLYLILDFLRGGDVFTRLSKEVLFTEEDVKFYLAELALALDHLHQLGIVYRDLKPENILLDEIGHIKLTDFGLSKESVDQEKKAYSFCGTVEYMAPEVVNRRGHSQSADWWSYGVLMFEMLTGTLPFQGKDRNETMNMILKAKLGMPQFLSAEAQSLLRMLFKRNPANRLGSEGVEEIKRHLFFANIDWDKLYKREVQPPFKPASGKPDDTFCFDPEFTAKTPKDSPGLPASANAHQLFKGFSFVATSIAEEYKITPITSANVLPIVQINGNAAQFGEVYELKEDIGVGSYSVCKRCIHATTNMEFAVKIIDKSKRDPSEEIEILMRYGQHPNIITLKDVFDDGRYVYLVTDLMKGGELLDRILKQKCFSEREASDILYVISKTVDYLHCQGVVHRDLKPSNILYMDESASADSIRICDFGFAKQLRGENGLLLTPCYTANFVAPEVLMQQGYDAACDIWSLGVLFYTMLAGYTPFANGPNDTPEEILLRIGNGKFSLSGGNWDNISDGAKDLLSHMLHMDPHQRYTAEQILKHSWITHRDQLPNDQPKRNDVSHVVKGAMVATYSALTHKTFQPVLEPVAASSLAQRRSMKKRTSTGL
T7 sequence (P08631 whole entry): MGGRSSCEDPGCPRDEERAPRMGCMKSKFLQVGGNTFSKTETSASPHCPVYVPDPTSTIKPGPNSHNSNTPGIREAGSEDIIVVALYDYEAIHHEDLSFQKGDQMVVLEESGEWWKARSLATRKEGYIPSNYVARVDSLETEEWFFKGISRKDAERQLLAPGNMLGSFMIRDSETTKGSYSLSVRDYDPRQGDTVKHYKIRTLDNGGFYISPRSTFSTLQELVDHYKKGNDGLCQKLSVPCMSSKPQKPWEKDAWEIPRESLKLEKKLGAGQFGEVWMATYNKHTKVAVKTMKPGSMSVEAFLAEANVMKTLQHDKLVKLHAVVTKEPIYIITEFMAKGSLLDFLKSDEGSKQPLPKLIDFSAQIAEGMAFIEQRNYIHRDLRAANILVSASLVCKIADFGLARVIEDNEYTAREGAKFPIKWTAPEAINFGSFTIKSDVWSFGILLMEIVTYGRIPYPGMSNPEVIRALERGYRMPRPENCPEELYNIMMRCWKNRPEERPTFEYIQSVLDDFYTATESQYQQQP

In the case of `c1cc(-c2cnn3cc(-c4ccc(OCCN5CCCCC5)cc4)cnc23)ccn1` [Dorsomorphin], the ΔTm at 10 µM on LOK was 2.5 °C; on NEK11 it was 2 °C; on MST4, 0.7 °C; at NEK1, 0.1 °C; on MRCKβ, 0 °C.
With `COc1cc(-c2cc(-c3cccc(O)c3)cnc2N)cc(OC)c1OC` [K02288, 3-[6-amino-5-(3,4,5-trimethoxy-phenyl)-pyridin-3-yl]-phenol], the inhibition at 0.1 µM was found to be 0.1% on RSK4, 8.9% on HCK, 0.8% on PI4-K-β and 1.8% at PHKγ1. Also, the inhibition at 1 µM on RSK4 is 1%; on HCK, 51%; at PI4-K-β it was -4%; at PHKγ1, 4.4%. Also, the “activity weaker than control compound LDN-193189” value in test [1] (C2C12 cells, BMP4, BRE-luciferase) turned out to be 10 fold. Also, the ΔTm at 10 µM at LOK amounted to 2.1 °C; at NEK11, 0.3 °C; at MST4, 0.2 °C; on NEK1 it was 0.2 °C; at MRCKβ, 0.4 °C.
Turning to `c1ccc2c(-c3cnn4cc(-c5ccc(N6CCNCC6)cc5)cnc34)ccnc2c1` [LDN-193189], the inhibition at 0.1 µM on RSK4 came to 0.8%; on HCK it was 9.7%; on PI4-K-β, 3.5%; at PHKγ1, 5.2%. Besides, the inhibition at 1 µM at RSK4 came out at 3.8%; on HCK, 33%; at PI4-K-β it was 5.8%; on PHKγ1 it was 27%. The IC50 in test [1] (Mus musculus, C2C12, read-out: IC50, BRE-luciferase) came out at 10 nM. The ΔTm at 10 µM at LOK is 3.1 °C; at NEK11, -0.3 °C; on MST4 it was 0.8 °C; at NEK1, 0.2 °C; on MRCKβ, 0.6 °C.
